Laboratory results from US11957783B2, “Topical immunosensitizers to treat viral and fungal infections” (Squarex, LLC, priority 2018, dated 2024).

Tested on: peripheral blood mononuclear cells (PBMC)
Assay: Cytokine and immune-function gene expression of PBMC in vitro (qRT-PCR, 41 immune-related genes)
Format: cell-based, human
Settings: Group A
Protocol: After a screening visit at which blood was drawn to test for IgG antibody against HSV-1 and subjects were interviewed for inclusion/exclusion criteria, selected subjects returned for blood draws on day 1. After the blood draw on day 1, subjects in group A only were dosed with SADBE. A petrolatum donut was applied with a cotton swab to form about a 1 cm diameter donut on skin on the inner aspect of the upper arm. Then a separate cotton swab was dipped in a 2% SADBE solution (w/v) in DMSO, and the swab was then used to apply about 10-20 mg of solution over about a 1 cm diameter circle within the petrolatum donut. Immediately after application, the application site was covered with TEGADERM. Subjects were advised to remove the TEGADERM and rinse and wipe the spot three hours later. The group A subjects then returned for blood draws on days 15 and 57 and were queried about adverse events on those dates.
PBMC were isolated using SepMate PBMC isolation tubes (Stem Cell Technologies, Vancouver, Canada) and Ficoll-Paque according to the manufacturer's instructions. PBMC were isolated and suspended in negative control medium at 2 million cells/ml. PBMC suspension (100 μL) was added to 100 μL of medium in quadruplicate in 96-well plates. The plates were prepared in advance and stored at −70° C. The wells were in five different conditions in quadruplicate with these final concentrations after addition of the 100 μL of PBMC suspension in negative control medium. • 1. Negative control in medium (RPMI with glutamine and pen/strep, supplemented with 10% human A/B serum). • 2. Medium plus 16 μg/ml protein from heat-inactivated HSV-1-infected Vero cell extracts. • 3. Medium plus heat-inactivated HSV-1 cell-free virus at a final 7.5 million pfu/ml. • 4. Medium plus Candida cell extract. (Greer item number M15A50, 20,000 pnu/ml allergenic extract mixed molds Candida albicans, was diluted 1/50 into medium). • 5. Positive control, medium plus 10 μg/ml concanavalin A.
Two plates were created for each subject at each collection point. One plate was incubated for 2 days at 37° C. in a humidified 5% CO2 atmosphere and then RNA was isolated from the pooled contents of the 4 wells of a given condition for a specific patient, and the RNA was stored at −70° C. and subsequently used for quantitative real time PCR analysis of gene expression of 41 immune-related genes.
As noted above, after 2 days of growth of the PBMC in a 37° C. humidified 5% CO2 incubator in a 96-well plate, four wells of a single condition (negative control, positive control, heat-inactivated HSV-1, HSV-1-infected cell extracts, or Candida extract) with cells from a single subject (200 μL in each well) were pooled, and the RNA was immediately isolated with Trizol reagent and chloroform by Qiagen RNeasy MiniElute clean up kit Qiagen cat #74204, according to manufacturer's instructions into a final volume of 13 μL, and then flash frozen on powdered dry ice, and stored at −70° C. in aliquots of 3 μL for RNA quantification and 10 μL for PCR analysis.
RNA was preamplified with the Qiagen RT2 PreAMP cDNA synthesis kit (Ref. 330451) and custom RT2 PreAmp primer mix (Ref. 330141) starting with about 50 ng RNA according to the procedure of RT preamp cDNA synthesis handbook date March 2011, pages 17-20. The amplification reactions (final 120 μL) were frozen at −70° C. and used for qPCR analysis the next day.
qPCR was done with the Qiagen RT PCR profiler gene analysis kit (catalog number 330451) using RT2 Sybr Green Rox qPCR Mastermix (24) (Part 330523) and Custom RT2 PCR array plates (Ref. 330171). For this 675 μL 2×RT2 SYBR green mastermix, 51 μL pre-AMP synthesis reaction, and 623 μL RNase free water were mixed, and then 25 μL of the mixture was added to 48 wells on the left or right half of the custom PCR plate. The PCR instrument was Applied Biosystems 7900HT fast real time PCR. […]

## CCCCOc1c(OCCCC)c(=O)c1=O [SADBE, 3,4-Dibutoxy-3-cyclobutene-1,2-dione]
HSV-infected cell extracts
  IFNB1 ratio of PBMC absolute gene expression day 57/day 1: 0.65
  IFNG ratio of PBMC absolute gene expression day 15/day 1: 1.26
  IFNG ratio of PBMC absolute gene expression day 57/day 1: 5.72
  IL1B ratio of PBMC absolute gene expression day 15/day 1: 1.48
  IL1B ratio of PBMC absolute gene expression day 57/day 1: 21.45
  IL1R1 ratio of PBMC absolute gene expression day 15/day 1: 0.89
  IL1R1 ratio of PBMC absolute gene expression day 57/day 1: 1.11
  IL1RN ratio of PBMC absolute gene expression day 15/day 1: 0.94
  IL1RN ratio of PBMC absolute gene expression day 57/day 1: 0.79
  IL2 ratio of PBMC absolute gene expression day 15/day 1: 0.98
  IL2 ratio of PBMC absolute gene expression day 57/day 1: 2.48
  IL4 ratio of PBMC absolute gene expression day 15/day 1: 0.77
  IL4 ratio of PBMC absolute gene expression day 57/day 1: 0.89
  IL5 ratio of PBMC absolute gene expression day 15/day 1: 0.83
  IL5 ratio of PBMC absolute gene expression day 57/day 1: 0.50
  IL8 ratio of PBMC absolute gene expression day 15/day 1: 0.99
  IL8 ratio of PBMC absolute gene expression day 57/day 1: 3.86
  IL10 ratio of PBMC absolute gene expression day 15/day 1: 1.19
  IL10 ratio of PBMC absolute gene expression day 57/day 1: 3.29
  IL12A ratio of PBMC absolute gene expression day 15/day 1: 0.90
  IL12A ratio of PBMC absolute gene expression day 57/day 1: 0.89
  IL12B ratio of PBMC absolute gene expression day 15/day 1: 0.80
  IL12B ratio of PBMC absolute gene expression day 57/day 1: 0.23
  IL13 ratio of PBMC absolute gene expression day 15/day 1: 1.01
  IL13 ratio of PBMC absolute gene expression day 57/day 1: 2.28
  IL15 ratio of PBMC absolute gene expression day 15/day 1: 0.93
  IL15 ratio of PBMC absolute gene expression day 57/day 1: 0.87
  IL16 ratio of PBMC absolute gene expression day 15/day 1: 1.03
  IL16 ratio of PBMC absolute gene expression day 57/day 1: 1.02
  JAK2 ratio of PBMC absolute gene expression day 15/day 1: 0.86
  JAK2 ratio of PBMC absolute gene expression day 57/day 1: 0.82
  LTA ratio of PBMC absolute gene expression day 15/day 1: 1.03
  LTA ratio of PBMC absolute gene expression day 57/day 1: 0.99
  LYZ ratio of PBMC absolute gene expression day 15/day 1: 0.73
  LYZ ratio of PBMC absolute gene expression day 57/day 1: 0.29
  MX1 ratio of PBMC absolute gene expression day 15/day 1: 0.89
  MX1 ratio of PBMC absolute gene expression day 57/day 1: 0.66
  NOD1 ratio of PBMC absolute gene expression day 15/day 1: 1.04
  NOD1 ratio of PBMC absolute gene expression day 57/day 1: 0.89
  SPP1 ratio of PBMC absolute gene expression day 15/day 1: 2.09
  SPP1 ratio of PBMC absolute gene expression day 57/day 1: 5.38
  STAT1 ratio of PBMC absolute gene expression day 15/day 1: 0.90
  STAT1 ratio of PBMC absolute gene expression day 57/day 1: 0.91
  STAT4 ratio of PBMC absolute gene expression day 15/day 1: 0.89
  STAT4 ratio of PBMC absolute gene expression day 57/day 1: 1.01
  TNF ratio of PBMC absolute gene expression day 15/day 1: 1.17
  TNF ratio of PBMC absolute gene expression day 57/day 1: 1.2
  TNFSF10 ratio of PBMC absolute gene expression day 15/day 1: 0.84
  TNFSF10 ratio of PBMC absolute gene expression day 57/day 1: 0.88
  TNFSF13B ratio of PBMC absolute gene expression day 15/day 1: 0.93
  TNFSF13B ratio of PBMC absolute gene expression day 57/day 1: 1.07
Neg. control
  CCL2 ratio of PBMC absolute gene expression day 15/day 1: 0.35
  CCL2 ratio of PBMC absolute gene expression day 57/day 1: 1.15
  CCL3 ratio of PBMC absolute gene expression day 15/day 1: 0.47
  CCL3 ratio of PBMC absolute gene expression day 57/day 1: 1.79
  CCL7 ratio of PBMC absolute gene expression day 15/day 1: 0.25
  CCL7 ratio of PBMC absolute gene expression day 57/day 1: 1.35
  CCR5 ratio of PBMC absolute gene expression day 15/day 1: 1.00
  CCR5 ratio of PBMC absolute gene expression day 57/day 1: 1.19
  CD80 ratio of PBMC absolute gene expression day 15/day 1: 0.66
  CD80 ratio of PBMC absolute gene expression day 57/day 1: 1.16
  CXCL2 ratio of PBMC absolute gene expression day 15/day 1: 0.51
  CXCL2 ratio of PBMC absolute gene expression day 57/day 1: 1.33
  CXCL5 ratio of PBMC absolute gene expression day 15/day 1: 0.36
  CXCL5 ratio of PBMC absolute gene expression day 57/day 1: 1.78
  CXCL9 ratio of PBMC absolute gene expression day 15/day 1: 2.50
  CXCL9 ratio of PBMC absolute gene expression day 57/day 1: 4.93
  CXCL10 ratio of PBMC absolute gene expression day 15/day 1: 0.94
  CXCL10 ratio of PBMC absolute gene expression day 57/day 1: 0.68
  CXCL11 ratio of PBMC absolute gene expression day 15/day 1: 0.62
  CXCL11 ratio of PBMC absolute gene expression day 57/day 1: 0.83
  DDX58 ratio of PBMC absolute gene expression day 15/day 1: 0.82
  DDX58 ratio of PBMC absolute gene expression day 57/day 1: 0.83
  FOXP3 ratio of PBMC absolute gene expression day 15/day 1: 0.95
  FOXP3 ratio of PBMC absolute gene expression day 57/day 1: 1.07
  GATA3 ratio of PBMC absolute gene expression day 15/day 1: 1.06
  GATA3 ratio of PBMC absolute gene expression day 57/day 1: 0.84
  ICAM1 ratio of PBMC absolute gene expression day 15/day 1: 1.10
  ICAM1 ratio of PBMC absolute gene expression day 57/day 1: 1.34
  IFNA1 ratio of PBMC absolute gene expression day 15/day 1: 1.20
  IFNA1 ratio of PBMC absolute gene expression day 57/day 1: 1.47
  IFNB1 ratio of PBMC absolute gene expression day 15/day 1: 0.99
  IFNB1 ratio of PBMC absolute gene expression day 57/day 1: 0.73
  IFNG ratio of PBMC absolute gene expression day 15/day 1: 1.05
  IFNG ratio of PBMC absolute gene expression day 57/day 1: 1.24
  IL1B ratio of PBMC absolute gene expression day 15/day 1: 0.16
  IL1B ratio of PBMC absolute gene expression day 57/day 1: 2.09
  IL1R1 ratio of PBMC absolute gene expression day 15/day 1: 1.00
  IL1R1 ratio of PBMC absolute gene expression day 57/day 1: 0.6
  IL1RN ratio of PBMC absolute gene expression day 15/day 1: 0.90
  IL1RN ratio of PBMC absolute gene expression day 57/day 1: 1.35
  IL2 ratio of PBMC absolute gene expression day 15/day 1: 0.80
  IL2 ratio of PBMC absolute gene expression day 57/day 1: 1.21
  IL4 ratio of PBMC absolute gene expression day 15/day 1: 0.86
  IL4 ratio of PBMC absolute gene expression day 57/day 1: 0.98
  IL5 ratio of PBMC absolute gene expression day 15/day 1: 0.99
  IL5 ratio of PBMC absolute gene expression day 57/day 1: 0.39
  IL8 ratio of PBMC absolute gene expression day 15/day 1: 0.62
  IL8 ratio of PBMC absolute gene expression day 57/day 1: 2.38
  IL10 ratio of PBMC absolute gene expression day 15/day 1: 0.90
  IL10 ratio of PBMC absolute gene expression day 57/day 1: 1.04
  IL12A ratio of PBMC absolute gene expression day 15/day 1: 0.84
  IL12A ratio of PBMC absolute gene expression day 57/day 1: 0.98
  IL12B ratio of PBMC absolute gene expression day 15/day 1: 0.40
  IL12B ratio of PBMC absolute gene expression day 57/day 1: 1.38
  IL13 ratio of PBMC absolute gene expression day 15/day 1: 0.88
  IL13 ratio of PBMC absolute gene expression day 57/day 1: 1.69
  IL15 ratio of PBMC absolute gene expression day 15/day 1: 0.95
  IL15 ratio of PBMC absolute gene expression day 57/day 1: 1.13
  IL16 ratio of PBMC absolute gene expression day 15/day 1: 1.06
  IL16 ratio of PBMC absolute gene expression day 57/day 1: 0.89
  JAK2 ratio of PBMC absolute gene expression day 15/day 1: 0.91
  JAK2 ratio of PBMC absolute gene expression day 57/day 1: 0.93
  LTA ratio of PBMC absolute gene expression day 15/day 1: 0.94
